Experimental data published in paper PMC6706418, “Systemically Administered Plant Recombinant Holo-Intrinsic Factor Targets the Liver and is not Affected by Endogenous B12 levels” (Scientific Reports, 2019).

Target: T1, human gastric Intrinsic factor (IF; hrIF) (Homo sapiens, UniProt P27352)
T1 construct: gene CBLIF; recombinant apo-IF expressed in Arabidopsis thaliana (Xeragenx LLC); secreted glycoprotein ~50 kDa with plant glycosylation
Assay: radiometric chase assay with […]-B12
Assay type: binding
Settings: competition against 57Co-B12; B12-desferrioxamine conjugate chelated to cold 91Zr (pH 7-7.5)

T1 sequence (P27352 19-417): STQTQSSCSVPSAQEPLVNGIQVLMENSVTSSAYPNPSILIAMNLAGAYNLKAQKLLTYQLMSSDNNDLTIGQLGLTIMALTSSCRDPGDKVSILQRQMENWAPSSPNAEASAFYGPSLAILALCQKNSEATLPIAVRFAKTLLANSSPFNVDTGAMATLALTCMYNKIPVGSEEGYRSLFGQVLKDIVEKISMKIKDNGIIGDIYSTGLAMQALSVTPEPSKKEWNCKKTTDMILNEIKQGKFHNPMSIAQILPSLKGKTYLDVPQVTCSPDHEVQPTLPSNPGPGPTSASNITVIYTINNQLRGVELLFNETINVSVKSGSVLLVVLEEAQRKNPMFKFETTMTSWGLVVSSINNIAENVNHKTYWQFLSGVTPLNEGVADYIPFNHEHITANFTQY

[^91Zr]-B12
Kd: 1.57 nM
